For six compounds, TGI results are on record in PubChem BioAssay (NCI).

Holding throughout (assay): inhibition of tumour cell growth, NCI panel, 48 h
For test [1], the system named is SK-MEL-28 melanoma.
Test [2] relates to SN12C renal.
The subject of test [3] is HS 578T breast.
In test [4] the test system is NCI-H23 lung.
The test system of test [5] is SW-620 colon.
The subject of test [6] is CCRF-CEM leukemia.
For test [7], the system named is HOP-62 NSCLC.
Test [8] concerns SR leukemia.
In test [9] the test system is SNB-75 CNS.
Test [10] relates to HCT-15 colon.
Test [11] has as its system MCF7 breast.
Test [12] concerns NCI-H226 lung.
The test system of test [13] is UO-31 renal.
In test [14] the test system is SK-MEL-2 melanoma.
Test [15] deals with MOLT-4 leukemia.
The subject of test [16] is PC-3 prostate.
For test [17], the system named is UACC-257 melanoma.
Test [18] deals with SF-295 CNS.

Molecules are shown by their SMILES.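 Exposure lasted 48 hours, with cells grown in 96-well plates and compounds tested at five concentrations. At the TGI there is no net growth.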

For `CC1=CC[C@H](C[C@H](C#CCCCC2OCCO2)O[Si](C(C)C)(C(C)C)C(C)C)C(=O)CC1`, the TGI in test [1], in test [2], in [3], in test [4], in [5] and in test [6] was over 100 µM each time. The TGI in [7], in test [8], in test [9], in test [10], in test [11] and in test [12] was over 100 µM each time. Besides, the TGI in test [13], in test [14], in test [15], in test [16], in [17] and in test [18] was over 100 µM in each case.

For `C[N+]12CCCCC1C(COc1cccc3cccnc13)CCC2` (stereo not drawn), the TGI in test [1], in test [2], in [3], in test [4], in test [5] and in test [6] was over 100 µM each time. Moreover, the TGI in [7], in test [8], in test [9], in test [10], in test [11] and in [12] was over 100 µM each time. The TGI in test [13], in [14], in test [15], in test [16], in [17] and in test [18] was over 100 µM throughout.

`NC1C/C(=N\O)c2c(Cl)sc(Cl)c21` (stereo not drawn): the TGI in [1] was 33.6 µM; in test [2] it was 35 µM; in test [3], over 100 µM; in test [4], 33.7 µM; in test [5] it was 33.4 µM; in test [6], over 100 µM. Besides, the TGI in test [7] was 37 µM; in [8] it was over 100 µM; in test [9] it was 76.9 µM; in test [10], 33 µM; in [11], 27.5 µM; in [12], 41.4 µM. Further, the TGI is 34.3 µM in [13]; 36.1 µM in test [14]; over 100 µM in [15]; 48.8 µM in test [16]; 31.2 µM in test [17]; 91.1 µM in test [18].

`COc1nn(Cc2ccccn2)c2ccc([N+](=O)[O-])cc12`: the TGI was over 100 µM in [1]; over 100 µM in test [2]; 88 µM in [3]; over 100 µM in [4]; over 100 µM in [5]; over 100 µM in test [6]. In addition, the TGI in [7] was over 100 µM; in test [8], 98.4 µM; in test [9], 93 µM; in test [10], over 100 µM; in test [11], over 100 µM; in test [12], over 100 µM. For the same compound, the TGI in test [13], in test [14], in [15], in [16], in [17] and in test [18] was over 100 µM in each case.

`CC(=O)OCC1OC(NC(=S)Nn2c(=O)[nH]c3ccccc3c2=O)C(OC(C)=O)C(OC(C)=O)C1OC(C)=O` (stereo not drawn): the TGI in [1], in test [2], in test [3], in [4], in test [5] and in test [6] was over 100 µM each time. Further, the TGI in [7], in test [8], in [9], in [10], in [11] and in test [12] was over 100 µM throughout. Besides, the TGI in [13], in test [14], in test [15], in test [16], in [17] and in test [18] was over 100 µM throughout.

Regarding `CCN(CCCl)c1cc(CN(C)C)cc(NC(=O)c2ccc(C(=O)Nc3cc(CN(C)C)cc(N(CC)CCCl)c3)cc2)c1`, the TGI came out at 0.536 µM in test [1]; 1.53 µM in test [2]; 0.761 µM in [3]; 0.472 µM in test [4]; 1.92 µM in [5]; 1.01 µM in [6]. Further, the TGI was 0.966 µM in [7]; 18.1 µM in test [8]; 0.506 µM in test [9]; 29.5 µM in test [10]; 0.241 µM in [11]; 0.251 µM in test [12]. For the same compound, the TGI is 11.6 µM in test [13]; 3.23 µM in test [14]; 0.248 µM in [15]; 2.4 µM in test [16]; 1.32 µM in test [17]; 1.21 µM in [18].
